# Measured values published in the NIST ThermoML archive (doi:10.1016/j.fluid.2012.11.029).
# ± gives the expanded uncertainty stated by the source.
# Tests used:
# [1] = Crystal; DTA
# [2] = Molar enthalpy of transition or fusion; conditions: Crystal; DSC
Normal melting temperature [1],Molar enthalpy of transition or fusion [2],Compound
172.69 ± 1.1 °C,6.67 ± 0.191 kcal/mol,NNC(=O)c1ccncc1 [isonicotinic acid hydrazide]
188.27 ± 1.1 °C,6.72 ± 0.191 kcal/mol,NC(=O)c1cnccn1 [pyrazinecarboxamide]

Compound,Normal melting temperature [1],Molar enthalpy of transition or fusion [2]
CCCCCCCCCC[N+](C)(C)CCCCCCCCCC.O=[N+]([O-])[O-] [Didecyldimethylammonium nitrate],31.7 ± 1.1 °C,2.33 ± 0.0789 kcal/mol
